We go through 87 molecules from a melting point compilation (Tetko et al.; mined from patent text by program, amines drawn as free bases though some values may be those of a salt).

SMILES strings stand for the structures.

By melting point is commonly meant the temperature, or range, at which the solid turns liquid. `Oc1cccc(CCCc2cc(C(c3ccccc3)c3ccccc3)on2)c1` yielded a melting point of 114 to 117 °C.

Molecule `O=c1[nH]c2ccc(-c3cccc([N+](=O)[O-])c3)cc2[nH]1` had a melting point of 324 to 325 °C.

Molecule `O=C(CCCO)c1ccc(CCNS(=O)(=O)c2ccccc2)cc1` showed a melting point of 89 to 90 °C.

Turning to `CC(C)(NCCc1ccccc1)C(O)c1ccccc1` (configuration not stated), the melting point was in the range of 103 to 104 °C.

In turn, `CCn1ccc(C2(c3cccc(-c4cncnc4)c3)N=C(N)N(C)C2=O)c1` (configuration not stated) had a melting point of 100 to 102 °C.

Take `Nc1nc2c(s1)CCN(CC=Cc1ccccc1Br)CC2`: the melting point lay within 103 to 106 °C.

The molecule `COc1ccc2c(CNCCCCCC(=O)O)cc3cc(OC)c(OC)cc3c2c1` yielded a melting point of 133 to 134 °C.

In the case of `O=c1oc2c([N+](=O)[O-])c(O)c(O)cc2cc1-c1ccccc1`, the melting point lay in the range of 195 to 210 °C.

`OCC(=C(c1ccc(F)cc1)c1ccc(F)cc1)n1cnnn1`: the melting point was 152 to 154 °C.

Molecule `O=S(=O)(NC(Cc1ccc(O)cc1)c1ccccc1)c1ccc(Cl)cc1` (configuration not stated) registered a melting point of 174 to 178 °C.

As for `CCO[C@@H](Cc1ccc(OCCc2nc(C(C)(C)C)oc2C)c2ccsc12)C(=O)O`, the melting point lay within 152 to 153 °C.

The molecule `O=C/C=C/c1c(-c2ccc(F)cc2)n(CCc2ccccc2)c(=O)c2ccccc12` displayed a melting point of 133 to 134 °C.

`CC(C)(C)OC(=O)CCNC(=O)c1cccc(NC(=O)c2csc(NC(=O)NCc3ccccc3)n2)c1` returned a melting point of 212 °C.

Regarding `CC(C)C(NC(=O)c1ccc(C(=O)NCC(=O)OCc2ccccc2)cc1)C(=O)N(CC(=O)NC(C(=O)C(F)(F)F)C(C)C)C1Cc2ccccc2C1` (mixture of isomers), the melting point was in the range of 64 to 66 °C.

Take `COc1ccc(-c2csc(Nc3ccc4ccccc4c3)n2)cc1OC`: the melting point was 221 to 224 °C.

Turning to `CC(C)c1nc(CCOC2=CCCCCCC2)n(C)c1Sc1cc(Cl)cc(Cl)c1`, the melting point is 73 to 74 °C.

`C[C@H](NC(=O)OCc1ccccc1)C(=O)Nc1ccc(S(N)(=O)=O)cc1` had a melting point of 245 to 246 °C.

The molecule `Cc1cc2oc(=O)c3c(c2cc1N)CCN(CCN1CC2CCC(CC2)C1)C3` came in with a melting point of 142 to 143 °C.

In turn, `c1cc2c3c(cccc3c1)C(NCCCCCCCn1ccnc1)=N2` registered a melting point of 48 to 50 °C.

`CC(C)(OCc1cc(-c2ccc(Cl)cc2)no1)C(=O)O`: the melting point fell in the range of 130 to 134 °C.

Molecule `CCc1cc(C#N)cc(C)c1CC(=O)OC` displayed a melting point of 65 to 72 °C.

The molecule `C#CCOc1ccc(Cc2nnc(Cl)c3ccccc23)cc1` gave a melting point of 129 to 131 °C.

In turn, `O=C(Nc1ccccc1)N(c1ccccc1)c1ccccc1` displayed a melting point of 131 °C.

In the case of `NC(=O)c1cc(C(c2c(F)ccc(F)c2F)S(=O)(=O)CCC(F)(F)F)c(Cl)cn1` (configuration not stated), the melting point fell in the range of 237 to 239 °C.

`COc1ccc(C2CCCCC2)cc1-c1csc(NC(=O)N2CCN(C[C@@H]3CCCN(C4CC4)C3)CC2)n1` displayed a melting point of 88 °C.

In turn, `c1ccc(-c2cc(-c3c[nH]nc3-c3ccccn3)ccn2)cc1` yielded a melting point of 148 °C.

`CCCCCCCCc1ccc(CCC(NC(C)=O)(C(O)OC(C)=O)C(O)OC(C)=O)cc1` (configuration not stated) came in with a melting point of 105 to 107 °C.

For `COc1ccc(N2CCOCC2)c2sc(-c3nc4ccccc4n3C)nc12`, the melting point lay in the range of 283 to 285 °C.

In turn, `CN(C)C(=O)C1(c2cc(C#N)ccc2O)CCCC1` displayed a melting point of 144 to 146 °C.

Regarding `O=C(O)CCc1cc(C=Nc2ccccc2O)c(O)c(C=Nc2ccccc2O)c1`, the melting point fell in the range of 204 to 205 °C.

For the molecule `Cc1c2c(cn1CC(N)=O)CN=C(c1ccccc1Cl)c1cc(Cl)ccc1-2`, the melting point fell in the range of 142 to 145 °C.

Turning to `Cc1noc(-c2ccc(I)cc2)n1`, the melting point lay in the range of 136 to 137 °C.

Turning to `CCCCCc1ccc(-c2ccc(F)cc2)nc1`, the melting point worked out at 27 °C.

Take `CCN(CC)CCOc1ccc(Nc2ncc3c(n2)N(C)C(=O)N(c2ccccc2Cl)C3)cc1`: the melting point lay in the range of 150 to 151 °C.

On to `O=c1[nH]c2ccccc2n1-c1ncnc2nn(C3CCCC3)cc12`, for which the melting point is 236 to 240 °C.

`Cc1nn(C)c(O)c1C(=O)c1ccc(S(C)(=O)=O)c(-c2cnco2)c1Cl` gave a melting point of 236 to 241 °C.

`CCCOCC1(C)CCCOc2cc(C#Cc3ccc(C(=O)O)cc3)ccc21` (configuration not stated) showed a melting point of 148 to 149 °C.

As for `COc1cc(C(O)c2cnc3ccccc3c2)ccc1OCc1ccccc1` (configuration not stated), the melting point was in the range of 124 to 125 °C.

`NNC(=O)CCc1cccc(F)c1` displayed a melting point of 109 to 110 °C.

The molecule `CCC(CC)(CC(=O)Nc1cccc(OCc2ccc3ccc(Cl)cc3n2)c1)C(=O)O` gave a melting point of 87.5 to 88.5 °C.

With `C#CCN1CCc2cc(OC)c(O)c3c2C1Cc1cc(OC)c(OC)cc1-3` (configuration not stated), the melting point was in the range of 135 to 150 °C.

Molecule `Cc1cccc2ncn(C3CCC(=O)NC3=O)c(=O)c12` (configuration not stated) came in with a melting point of 262 to 264 °C.

Turning to `CN1CCc2ccc(OCCCCN3CCN(c4cccc(Cl)c4Cl)CC3)cc2NC1=O`, the melting point was in the range of 139 to 140 °C.

In the case of `C[C@@H]1[C@H]2C(=O)N(Cc3ccccc3)C(=O)[C@H]2[C@@H](c2ccc(Br)cc2)N1C` (racemic), the melting point was in the range of 166 to 168 °C.

On to `N#CC1CCCc2c(C(=O)O)cccc21` (configuration not stated), for which the melting point lay in the range of 177 to 179 °C.

Turning to `Cn1cc(-c2cc(-c3cnc4c(c3)CC(=O)N4)ccn2)n(-c2ccc(C(C)(C)C#N)cc2)c1=O`, the melting point amounted to 263 °C.

As for `O=c1c2ccc(OCCN3CCCCC3)cc2oc2cc(OCCN3CCCCC3)ccc12`, the melting point is 134 °C.

In turn, `COc1ccc(Nc2ncnc(NCc3ccco3)n2)cc1` yielded a melting point of 184 to 186 °C.

The molecule `CCn1nc(-c2nc(C#N)c(C#N)nc2-c2ccccc2)ccc1=O` had a melting point of 201 to 203 °C.

Molecule `CC(=O)NC[C@H]1CN(c2ccc(N3C[C@H]4CN(C(=O)COCc5ccccc5)C[C@H]4C3)c(F)c2)C(=O)O1` gave a melting point of 138 to 140 °C.

`Cc1cc2c(Oc3cccc(C(F)(F)F)c3)nc(CCC(F)(F)F)nc2s1` showed a melting point of 85 °C.

In the case of `CC[C@H](C)OC(=O)COc1ccc(C(=O)[C@H](COC(C)(C)C)NC(=O)c2ccc(C(=N)NC(=O)OC(C)(C)C)cc2)cc1`, the melting point was in the range of 85 to 87 °C.

`COc1ccc(C(=O)Nc2ccncc2)c2c1[nH]c1ccccc12` registered a melting point greater than 250 °C.

In turn, `CNc1nnc(C(C)(C)C)s1` gave a melting point of 79 to 81 °C.

Consider `CN(C1CCS(=O)(=O)CC1)S(=O)(=O)c1ccc(Nc2ccnc(Nc3ccc(F)cc3)n2)cc1`, for which the melting point amounted to 252 °C.

On to `CCCc1nc2c(N)nc3cc(C)ccc3c2s1`, for which the melting point was in the range of 186 to 187 °C.

As to `O=C1c2ccccc2C(=O)N1CC1Cc2ccc3c(c2O1)CCC3` (configuration not stated), the melting point fell in the range of 131 to 135 °C.

`COC(=O)c1ccc2oc(Cl)nc2c1` yielded a melting point of 104 to 106 °C.

`COc1ccc(S(=O)(=O)NCc2ccc(O)cc2)cc1` yielded a melting point of 161 to 162 °C.

Take `CNc1nc(NCc2ccc(NC(=O)C3CCN(Cc4ccccc4)CC3)cc2)c2ccc(C)cc2n1`: the melting point worked out at 128 °C.

For `CC(C)(C)c1ccc(CNC(=O)NCc2ccc(NS(C)(=O)=O)c([N+](=O)[O-])c2)cc1`, the melting point was 177 to 178 °C.

In the case of `COc1cc2ncc3c4cc5c(cc4ccc3c2cc1OC)OCO5`, the melting point is 225 °C.

The molecule `O=C(O)COc1cccc2c1CCc1sc(S(=O)(=O)CCCC(c3ccccc3)c3ccccc3)nc1-2` displayed a melting point of 180 to 181 °C.

On to `Cc1ccc(C2=NN(C(=O)c3cccnc3)CC2)cc1`, for which the melting point was in the range of 100 to 102 °C.

With `O=C(N[C@@H](Cc1ccccc1)[C@H](O)CCl)OCc1ccccc1`, the melting point lay within 151 to 153 °C.

In turn, `CC(C)C1(C)N=C(c2ncc(C3OCC(C)(C)CO3)cc2C(=O)O)NC1=O` (configuration not stated) displayed a melting point of 163 to 170 °C.

Regarding `Oc1c(Cl)c(Cl)c(-c2c(Cl)c(Cl)c(O)c(Cl)c2Cl)c(Cl)c1Cl`, the melting point was in the range of 94 to 96 °C.

In the case of `CC1(C)CC(NC(=O)Nc2ccc(C(F)(F)F)cc2)CC(C)(C)C1=O`, the melting point lay within 152 to 153 °C.

On to `O=C(Nc1ccc(Oc2ccccc2)cc1)N1CCN(c2nccc3ccccc23)CC1`, for which the melting point lay in the range of 122 to 123 °C.

The molecule `COc1ccccc1C(O)(CC#N)c1ccccc1OC` had a melting point of 170 to 180 °C.

In turn, `CC(=O)c1cc(CS(C)=O)ccc1O` (configuration not stated) displayed a melting point of 95 to 97 °C.

In turn, `O=C(Nc1cc(F)c(-c2ccncc2)c(F)c1)OCc1ccccc1` came in with a melting point of 185 to 186 °C.

As for `Fc1ccc(-c2cc(Cl)c3sccc3n2)cc1`, the melting point fell in the range of 119 to 121 °C.

Molecule `O=C(/C=C/c1ccn(S(=O)(=O)c2ccc(CN3CCOCC3)cc2)c1)NO` returned a melting point of 168 to 170 °C.

On to `COC1(c2ccc(N(C)C)cc2)OC(=O)c2cc(N(C)C)ccc21` (configuration not stated), for which the melting point fell in the range of 140 to 147 °C.

`COC(=O)c1cc2cc(O)ccc2o1` returned a melting point of 132 to 133 °C.

Regarding `CC1CCCCC1NC(=O)[C@@H](C)NC(=O)[C@@H](N)CC(=O)O` (some centres not stated), the melting point lay within 206 to 209 °C.

In turn, `CCCN(C(C)=O)c1ccc(C(=O)N2CCN(CCc3ccc(Cl)cc3)CC2)cc1` came in with a melting point of 112 to 113 °C.

The molecule `COC(=O)c1c(F)cc(OCCNC(=O)C2Cc3ccccc3N2S(=O)(=O)c2ccc(-c3cccc(C(F)(F)F)c3)cc2)cc1F` (configuration not stated) gave a melting point of 68 to 71 °C.

As for `O=c1c2c[nH]c3c(c-2nn1-c1ccc(Cl)cc1)CSC3`, the melting point is greater than 330 °C.

The molecule `CCOC(=O)c1c(O)c(Br)c(Br)n1Cc1ccccc1` gave a melting point of 107 to 108 °C.

`CCOC(=O)[C@H]1C2C1[C@](N[C@H](C)c1ccccc1)(C(=O)OCC)C[C@@H]2O` (some centres not stated) showed a melting point of 73 to 74 °C.

In turn, `C=CCOC(=O)CCCCCCCCCCCCCCCCC` showed a melting point of 35 to 36 °C.

In turn, `Cc1c(Sc2ccc(Cl)cc2)nn(-c2ccc(Cl)cc2)c(=O)c1C#N` gave a melting point of 177 to 179 °C.

`CCCc1nn(C)c2c(=O)n(CCCc3cccc(OC(C)(C)C(=O)O)c3)c(C)nc12` came in with a melting point of 78 to 80 °C.

`CCCCCCCCCCCCCCCc1cc2c(C(=O)O)cccc2[nH]1` registered a melting point of 114 to 117 °C.

As for `NS(=O)(=O)c1cc(C(=O)O)cc(NCc2ccco2)c1Oc1ccccc1`, the melting point lay within 219 to 220 °C.
